Measured values: patent US9493438B2, “4,4-difluoro-piperidine-compounds” (ROTTAPHARM BIOTECH S.R.L., priority 2012, dated 2016)

Molecular target: T1, human OX1 receptors (Homo sapiens, UniProt O43613)
T1 construct: expressed in transfected cells; host or cells: CHO cells
T1 sequence (O43613 1-425): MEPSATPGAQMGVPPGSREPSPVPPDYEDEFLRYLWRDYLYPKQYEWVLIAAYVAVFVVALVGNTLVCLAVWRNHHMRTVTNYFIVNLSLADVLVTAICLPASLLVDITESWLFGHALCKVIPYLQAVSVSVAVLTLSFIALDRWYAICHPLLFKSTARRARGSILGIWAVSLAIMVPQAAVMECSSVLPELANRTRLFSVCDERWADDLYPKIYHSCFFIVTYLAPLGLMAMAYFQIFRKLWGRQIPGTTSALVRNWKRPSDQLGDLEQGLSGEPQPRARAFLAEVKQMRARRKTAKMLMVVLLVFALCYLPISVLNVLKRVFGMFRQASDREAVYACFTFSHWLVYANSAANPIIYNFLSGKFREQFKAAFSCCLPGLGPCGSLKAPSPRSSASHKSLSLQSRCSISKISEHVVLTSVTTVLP
Assay: antagonistic activity against human OX1 receptor, [Ca2+]i fluorimetry in transfected CHO cells
Format: cell-based
Details: CHO cells transfected with human recombinant OX1; activated with orexin-A 3 nM; pKb = co-logarithm of apparent dissociation constant (modified Cheng Prusoff)
Description: Thus the plate was loaded with the calcium dye (Fluo-4NW/probenecid in HBSS, Hepes 20 mM, pH 7.4; Invitrogen) at 37° C. for 60 min. Afterward the temperature was equilibrated at 22° C. for 15 min and the [Ca2+]i measured directly on the plate by using a fluorescent plate reader (CeliLux Perkin Elmer).
Invention compounds were dissolved in DMSO, diluted in HBSS (DMSO, 0.3% final) and added to the wells. After 5 min CHO cells were activated with orexin-A, 3 nM while HEK-293 cells were activated with orexin-B, 10 nM. […] The antagonistic activity has been expressed as pKb (co-logarithm of the apparent dissociation constant calculated by using the modified Cheng Prusoff equation). The results are expressed as percent of control specific […] response ((measured specific response/control specific agonist response)×100) obtained in the presence of the test compounds.
The IC50 values (concentration causing a half-maximal inhibition of the control specific agonist response) were determinated by non-linear regression analysis of the concentration curves generated with mean replicate values using hill equation curve fitting. The IC50 values are obtained by the arithmetical mean of at least two experiments.

| Kb | Structure (SMILES) |
| --- | --- |
| 5.01 nM | O=C(c1cc(Cl)ccc1-c1ncccn1)N1CCC(F)(F)CC1CNc1ccc(Cl)cn1 (racemic) [Compound 19, (RS)(5-chloro-2-(pyrimidin-2-yl)phenyl)(2-(((5-chloropyridin-2-yl)amino)methyl)-4,4-difluoropiperidin-1-yl)methanone] |
| 2.51 nM | O=C(c1nccc2ccccc12)N1CCC(F)(F)CC1CNc1ccc(C(F)(F)F)cn1 (racemic) [Compound 34, (RS)(4,4-difluoro-2-(((5-(trifluoromethyl)pyridin-2-yl)amino)methyl)piperidin-1-yl)(isoquinolin-1-yl)methanone] |
| 3.16 nM | O=C(c1ncccc1-c1ncccn1)N1CCC(F)(F)CC1CNc1ccc(C(F)(F)F)cn1 (racemic) [Compound 54, (RS) (4,4-difluoro-2-(((5-(trifluoromethyl)pyridin-2-yl)amino)methyl)piperidin-1-yl)(3-(pyrimidin-2-yl)pyridin-2-yl)methanone] |
| 0.631 nM | O=C(c1nccc2ccccc12)N1CCC(F)(F)CC1CNc1ccc(Cl)cn1 (racemic) [Compound 22, (RS)(2-(((5-chloropyridin-2-yl)amino)methyl)-4,4-difluoropiperidin-1-yl)(isoquinolin-1-yl)methanone] |
| 15.8 nM | O=C(c1ccncc1-c1ncccn1)N1CCC(F)(F)CC1CNc1ccc(Cl)cn1 (racemic) [Compound 28, (RS)(2-(((5-chloropyridin-2-yl)amino)methyl)-4,4-difluoropiperidin-1-yl)(3-(pyrimidin-2-yl)pyridin-4-yl)methanone] |
| 5.01 nM | Cc1ccc(-c2cccnc2)c(C(=O)N2CCC(F)(F)CC2CNc2ccc(C(F)(F)F)cn2)n1 (racemic) [Compound 50] |
| 200 nM | Cc1ccc(-c2ccccc2)c(C(=O)N2CCC(F)(F)CC2CNc2ccc(C(F)(F)F)cn2)n1 (single isomer, unassigned; isomer a) [Compound 37, (4,4-difluoro-2-(((5-(trifluoromethyl)pyridin-2-yl)amino)methyl)piperidin-1-yl)(6-methyl-3-phenylpyridin-2-yl)methanone (isomer A)] |
| 2.51 nM | Cc1ccc(-c2ncccn2)c(C(=O)N2CCC(F)(F)CC2CNc2ccc(Cl)cn2)n1 (racemic) [Compound 14, (RS)(2-(((5-chloropyridin-2-yl)amino)methyl)-4,4-difluoropiperidin-1-yl)(6-methyl-3-(pyrimidin-2-yl)pyridin-2-yl)methanone] |
| 15.8 nM | Cc1ccc(-c2ncccn2)c(C(=O)N2CCC(F)(F)CC2CNc2ccc(C#N)cn2)n1 (racemic) [Compound 29] |
| 31.6 nM | O=C(c1ccnc2ccccc12)N1CCC(F)(F)CC1CNc1ccc(C(F)(F)F)cn1 (racemic) [Compound 35] |
| 100 nM | O=C(c1ccccc1OC1CCCC1)N1CCC(F)(F)CC1CNc1ccc(Cl)cn1 (racemic) [Compound 13, (RS)(2-(((5-chloropyridin-2-yl)amino)methyl)-4,4-difluoropiperidin-1-yl)(2-(cyclopentyloxy)phenyl)methanone] |
| 15.8 nM | Cc1ccc(-n2nccn2)c(C(=O)N2CCC(F)(F)CC2CNc2ccc(Cl)cn2)n1 (single isomer, unassigned; isomer b) [Compound 9, (2-(((5-chloropyridin-2-yl)amino)methyl)-4,4-difluoropiperidin-1-yl)(6-methyl-3-(2H-1,2,3-triazol-2-yl)pyridin-2-yl)methanone (isomer B)] |
| 39.8 nM | Cc1ccc(-c2ccncc2)c(C(=O)N2CCC(F)(F)CC2CNc2ccc(C(F)(F)F)cn2)n1 (racemic) [Compound 52, (RS) (4,4-difluoro-2-(((5-(trifluoromethyl)pyridin-2-yl)amino)methyl)piperidin-1-yl)(6-methyl-[3,4′-bipyridin]-2-yl)methanone] |
| 5.01 nM | Cc1ccc(-c2ncccn2)c(C(=O)N2CCC(F)(F)CC2CNc2ccc(Cl)cn2)c1 (racemic) [Compound 6, (RS)(2-(((5-chloropyridin-2-yl)amino)methyl)-4,4-difluoropiperidin-1-yl)(5-methyl-2-(pyrimidin-2-yl)phenyl)methanone] |
